Measured values published in paper PMC8345035, “Targeted Alpha-Particle Radiotherapy and Immune Checkpoint Inhibitors Induces Cooperative Inhibition on Tumor Growth of Malignant Melanoma” (Cancers, 2021).
Read-outs that look alike come from different tables or passages of the source. Where a SMILES comes first, the peptide text is derived from it. Bridges are numbered along the chain shown (N, C = ends). Triazole bridges read from a SMILES are 1,4-linked. Side-chain parts run from the residue outwards. [ ]: non-standard residue; d: D form. The star is where a group is joined. X1 = NC(=O)CN1CCN(CC(=O)O)CCN(CC(=O)*)CCN(CC(=O)O)CC1; Lys(N3) = [N-]=[N+]=NCCCC[C@H](N)C(=O)O; Nle = CCCC[C@H](N)C(=O)O; Pra = C#CC[C@H](N)C(=O)O; AEEA = NCCOCCOCC(=O)O

Experiments:
[1] = In vivo biodistribution of [^203Pb]VMT01 in B16-F10 melanoma xenograft model; design: species or system athymic nude mice; conditions: athymic nude, mouse, intravenous, 74 KBq, total radioactivity, tail vein; for tissue uptake at 0.5 h: 0.5 h post-injection; for tissue uptake at 1.5 h: 1.5 h post-injection; for tissue uptake at 3 h: 3 h post-injection; for tissue uptake at 6 h: 6 h post-injection; for tissue uptake at 24 h: 24 h post-injection
Description: Radiolabeling of VMT01 was carried out according to published methods. Briefly, ^203Pb^2+ was purified on 50 mg Pb-resin (Eichrom Technologies, Lisle, IL, USA) and eluted into reaction vessel using 0.5 M sodium acetate (NaOAc) pH = 6 buffer. The reaction vessel contained 20 nmole VMT01 peptide precursor and 0.29 mL of 0.5 M sodium acetate (NaOAc) pH = 4 buffer to adjust final pH to 5.4. The reaction solution was heated under 85 °C for 30 min. After reactions, free ^203Pb was removed by StrataX C-18 SPE cartridge (Phenomenex, Torrance, CA, USA) and final products were collected in 50% EtOH in saline. Biodistribution of [^203Pb]VMT01 was determined in a B16-F10 murine melanoma xenograft model in athymic nude mice. B16-F10 xenograft was developed by the subcutaneous (SC) injection of 2 × 10^5 B16-F10 cells at the left shoulder in 100 µL 50% Matrigel in complete growth media. Then, 74 KBq of [^203Pb]VMT01 (5.4 pmole) were administered via tail vein injection (2 male and 2 female at each time point) in 100 µL of saline with less than 10% EtOH content. At 0.5, 1.5, 3, 6, and 24 h post-injection, animals were euthanized, and organs of interest were harvested and weighed. Radioactivity in tumor and organs was measured on a Cobra II automated gamma counter. […] The value for 48 h was extrapolated from the last 3 time points (3, 6, and 24 h) of the biodistribution by one phase exponential decay with least squares fitting method (GraphyPrism V7). The average kidney volume was assumed to be 0.33 cm^3 for C57BL6 mice. […] The voxel size of the model was adjusted to have the same kidney volume as the averaged value (0.33 cm^3). The elemental composition of the kidney and the mass density was assumed to be identical as the human adults’ values obtained from the International Commission on Radiation Units and measurements (ICRU) report 46 [52].

[2] = system: metastatic melanoma; design: method as in PMID 31562797; conditions: patients with metastatic melanoma; ref [13]; cited from earlier work
[3] = both sexes, blood, read-out: Biodistribution, Blood, Average
[4] = both sexes, brain, read-out: Biodistribution, Brain, Average
[5] = both sexes, heart, read-out: Biodistribution, Heart, Average
[6] = both sexes, kidney, read-out: Biodistribution, Kidneys, Average
[7] = both sexes, liver, read-out: Biodistribution, Liver, Average
[8] = both sexes, lungs, read-out: Biodistribution, Lungs, Average
[9] = both sexes, muscle, read-out: Biodistribution, Muscle, Average
[10] = both sexes, skin, read-out: Biodistribution, Skin, Average
[11] = both sexes, spleen, read-out: Biodistribution, Spleen, Average
[12] = both sexes, tumor, read-out: Biodistribution, Tumor, Average
[13] = male, testes, read-out: Biodistribution, Testes, Average

**Q.** With CCCC[C@H](NC(C)=O)C(=O)N[C@H]1Cc2cn(nn2)CCCC[C@@H](C(=O)N[C@@H](CCCCNC(=O)COCCOCCNC(=O)CN2CCN(CC(=O)O)CCN(CC(N)=O)CCN(CC(=O)O)CC2)C(N)=O)NC(=O)[C@H](Cc2c[nH]c3ccccc23)NC(=O)[C@H](CCCNC(=N)N)NC(=O)[C@@H](Cc2ccccc2)NC(=O)[C@H](Cc2c[nH]cn2)NC1=O [[^203Pb]VMT01, metal not drawn] (Ac-[Nle][Pra]H[dF]RW[Lys(N3)]K([AEEA-X1])-NH2; triazole 2-7) as the compound, how does the tissue uptake at 0.5 h [1, 3] read?
**A.** 1.1 %ID/g

**Q.** What about the tissue uptake at 1.5 h [1, 3] of the same compound?
**A.** 0.08 %ID/g

**Q.** What about the tissue uptake at 3 h [1, 3] of the same compound?
**A.** 0.03 %ID/g

**Q.** What about the tissue uptake at 6 h [1, 3] of the same compound?
**A.** 0.02 %ID/g

**Q.** What about the tissue uptake at 24 h [1, 3] of the same compound?
**A.** 0.01 %ID/g

**Q.** And the tissue uptake at 0.5 h [1, 4]?
**A.** 0.06 %ID/g

**Q.** What about the tissue uptake at 1.5 h [1, 4] of the same compound?
**A.** 0.02 %ID/g

**Q.** What about the tissue uptake at 3 h [1, 4] of the same compound?
**A.** 0.01 %ID/g

**Q.** And the tissue uptake at 6 h [1, 4]?
**A.** 0.01 %ID/g

**Q.** And the tissue uptake at 24 h [1, 4]?
**A.** 0.01 %ID/g

**Q.** What about the tissue uptake at 0.5 h [1, 5] of the same compound?
**A.** 0.66 %ID/g

**Q.** What about the tissue uptake at 1.5 h [1, 5] of the same compound?
**A.** 0.08 %ID/g

**Q.** And the tissue uptake at 3 h [1, 5]?
**A.** 0.05 %ID/g

**Q.** What about the tissue uptake at 6 h [1, 5] of the same compound?
**A.** 0.03 %ID/g

**Q.** And the tissue uptake at 24 h [1, 5]?
**A.** 0.02 %ID/g

**Q.** What about the tissue uptake at 0.5 h [1, 6] of the same compound?
**A.** 12.8 %ID/g

**Q.** And the tissue uptake at 1.5 h [1, 6]?
**A.** 6.1 %ID/g

**Q.** What about the tissue uptake at 3 h [1, 6] of the same compound?
**A.** 6 %ID/g

**Q.** And the tissue uptake at 6 h [1, 6]?
**A.** 5.3 %ID/g

**Q.** And the tissue uptake at 24 h [1, 6]?
**A.** 2.6 %ID/g

**Q.** What about the tissue uptake at 0.5 h [1, 7] of the same compound?
**A.** 0.64 %ID/g

**Q.** What about the tissue uptake at 1.5 h [1, 7] of the same compound?
**A.** 0.43 %ID/g

**Q.** What about the tissue uptake at 3 h [1, 7] of the same compound?
**A.** 0.31 %ID/g

**Q.** What about the tissue uptake at 6 h [1, 7] of the same compound?
**A.** 0.37 %ID/g

**Q.** What about the tissue uptake at 24 h [1, 7] of the same compound?
**A.** 0.22 %ID/g

**Q.** And the tissue uptake at 0.5 h [1, 8]?
**A.** 2.8 %ID/g

**Q.** And the tissue uptake at 1.5 h [1, 8]?
**A.** 2.98 %ID/g

**Q.** And the tissue uptake at 3 h [1, 8]?
**A.** 1.34 %ID/g

**Q.** What about the tissue uptake at 6 h [1, 8] of the same compound?
**A.** 1 %ID/g

**Q.** What about the tissue uptake at 24 h [1, 8] of the same compound?
**A.** 0.2 %ID/g

**Q.** And the tissue uptake at 0.5 h [1, 9]?
**A.** 0.73 %ID/g

**Q.** What about the tissue uptake at 1.5 h [1, 9] of the same compound?
**A.** 0.09 %ID/g

**Q.** What about the tissue uptake at 3 h [1, 9] of the same compound?
**A.** 0.04 %ID/g

**Q.** And the tissue uptake at 6 h [1, 9]?
**A.** 0.03 %ID/g

**Q.** And the tissue uptake at 24 h [1, 9]?
**A.** 0.02 %ID/g

**Q.** What about the tissue uptake at 0.5 h [1, 10] of the same compound?
**A.** 2.23 %ID/g

**Q.** What about the tissue uptake at 1.5 h [1, 10] of the same compound?
**A.** 0.27 %ID/g

**Q.** And the tissue uptake at 3 h [1, 10]?
**A.** 0.15 %ID/g

**Q.** And the tissue uptake at 6 h [1, 10]?
**A.** 0.17 %ID/g

**Q.** And the tissue uptake at 24 h [1, 10]?
**A.** 0.09 %ID/g

**Q.** And the tissue uptake at 0.5 h [1, 11]?
**A.** 0.58 %ID/g

**Q.** What about the tissue uptake at 1.5 h [1, 11] of the same compound?
**A.** 0.17 %ID/g

**Q.** What about the tissue uptake at 3 h [1, 11] of the same compound?
**A.** 0.12 %ID/g

**Q.** And the tissue uptake at 6 h [1, 11]?
**A.** 0.11 %ID/g

**Q.** What about the tissue uptake at 24 h [1, 11] of the same compound?
**A.** 0.09 %ID/g

**Q.** And the tissue uptake at 0.5 h [1, 12]?
**A.** 5.5 %ID/g

**Q.** What about the tissue uptake at 1.5 h [1, 12] of the same compound?
**A.** 8.9 %ID/g

**Q.** And the tissue uptake at 3 h [1, 12]?
**A.** 4.5 %ID/g

**Q.** And the tissue uptake at 6 h [1, 12]?
**A.** 3.8 %ID/g

**Q.** What about the tissue uptake at 24 h [1, 12] of the same compound?
**A.** 1.7 %ID/g

**Q.** And the tissue uptake at 0.5 h [1, 13]?
**A.** 3.23 %ID/g

**Q.** And the tissue uptake at 1.5 h [1, 13]?
**A.** 0.1 %ID/g

**Q.** What about the tissue uptake at 3 h [1, 13] of the same compound?
**A.** 0.04 %ID/g

**Q.** What about the tissue uptake at 6 h [1, 13] of the same compound?
**A.** 0.04 %ID/g

**Q.** What about the tissue uptake at 24 h [1, 13] of the same compound?
**A.** 0.03 %ID/g

**Q.** With ipilimumab: anti-CTLA-4 as the compound, how does the complete response rate [2] read?
**A.** 6%

**Q.** For nivolumab: anti-PD1, which complete response rate [2] is on record?
**A.** 19%
